Source: US20260015339A1, “CALIX[4]ARENES WITH HIGH ANTICANCER ACTIVITY” (UNIVERSITE GRENOBLE ALPES, priority 2023, published 2026)

How the values were obtained:
[1] = Cu^+ transport into liposomes with encapsulated BCS; settings: POPC/cholesterol 7:3 LUVs, calix[4]arene to lipid 1:1000, 50 μM copper gradient, F/F0 after 600 s
Protocol: The ability of the examples of calix[4]arenes of the invention and the comparative examples to be delivered into a lipidic bilayer membrane of a liposome from a solution and their capacity to then act as a transporter of Cu^+ was evaluated using bathocuproine disulphonate (hereafter abbreviated “BCS”) encapsulated in large unilamellar vesicles (LUVs, also referred to as liposomes) composed of 1-palmitoyl-2-oleoyl-sn-glycero-3-phosphocholine and cholesterol in a 7:3 ratio.
BCS is a fluorescent water soluble phenantroline derivative that can be used as fluorescent dye for the sensing of Cu^+ through the formation of a non-fluorescent 2:1 complex.
Stock solution of lipids were prepared using deacidified CHCl3 and stored in a freezer. CHCl3 was deacidified by passing through activated basic alumina. The lipids used to prepare the liposomes were 2-oleoyl-1-palmitoyl-sn-glycero-3-phosphocholine (POPC), (purity ≥99%) and cholesterol (purity of 95%). 50 mM sodium phosphate buffer were prepared with Millipore water at pH 7 (±0.1) by mixing the solution of the mono- and the di-protonated phosphate salts. The solution of the dye (BCS) was prepared at 0.5 mM concentration in phosphate buffer.
The lipids solutions were mixed in different ratios in a 5 mL round bottom flask. The POPC/cholesterol molar ratio was 7:3 in all experiments. The total amount of lipids per batch varied depending on the amount of liposomes solution required for the experiment. After mixing the lipid solutions in a round bottom flask, the chloroform was evaporated under a gentle air flow and the resulting lipid film was dried at high vacuum for at least an hour. 500 μL of the BCS solution in phosphate buffer and a magnetic stir bar were added to the flask. The flask was then sonicated for 30 seconds and placed under magnetic agitation for at least an hour. The solution was frozen with liquid nitrogen and heated back to room temperature with warm water ten times to form large unilamellar vesicles (LUVs). The liposome solution was extruded 29 times, using an extrusion kit equipped with a membrane with 200 nm pores. Subsequently, the solution was eluted with the buffer solution used for the experiment through a size exclusion column (Sephadex G-25) to remove the external BCS and then diluted with phosphate buffer to obtain a concentration of 0.4 mM in lipids.
Solutions of the calix[4]arenes were prepared at a concentration of 0.24 mM in DMSO and 5 μL of the solution was added 2 minutes before each transport measurement.
Alternatively, calix[4]arenes were pre-incorporated by combining the calix[4]arene (dissolved in chloroform) with the lipids prior to the evaporation of the chloroform to obtain a lipid film. The concentrations and volumes were chosen to obtain a calix[4]arene to lipid of 1:1000.
Fluorescence measurements were performed with a Horiba FluoroMax 4 spectrometer using a 4-faced quartz cuvette (10 mm×10 mm). For the Cu^+ transport assay, the excitation was set at 278 nm and emission was recorded at 393 nm. These values correspond to the excitation and emission maxima of BCS encapsulated inside LUVs.
The Cu^+ solutions added to the liposomes were obtained by dissolving Cu(MeCN)4BF4 in MeCN at 15.25 mM concentration. The copper solution was then diluted by a factor 5 in a phosphate buffer during the first 30 seconds of the experiment to reach a copper concentration of 3.05 mM. 50 μL of the diluted copper solution was added to 3 mL of liposomes, resulting in a copper gradient of 50 μM. The fluorescence level was monitored for 600 seconds after the addition of the copper solution.
For each run the initial plateau and the initial vertical drop (due to the binding of the exterior dye with Cu^+ and the dilution, 1-4 seconds after the addition) were removed. Then the signal was normalised by dividing the fluorescence values (F) by the value at t=0 second (F0). […]

[2] = Cu^+ binding by 1H NMR titration; settings: 1H NMR titration with Cu(MeCN)4BF4, CD3CN/CDCl3 4/1, 298 K
Protocol: Binding abilities and complexation constants of the examples of calix[4]arenes of the present invention and the comparative examples with Cu^+ were evaluated by ^1H NMR titrations at 298 K using copper(I)tetrakis(acetronitrile)tetrafluoroborate.
For example, for each separate calix[4]arene a stock solution of the tested calix[4]arene was prepared in a CD3CN/CDCl3, 4/1 mixture. Using this stock solution, a Cu(MeCN)4BF4 solution was prepared and added by steps of 0.25 equivalent of copper(I) up until 1 equivalent and then by steps of 0.5 equivalent until a total of at least 2 equivalents. ^1H NMR spectra were recorded at a 400 MHz spectrometer at 298 K for the stock solutions of the calix[4]arenes and after each addition of Cu(MeCN)4BF4.
Calix[4]arenes for which a gradual change of the chemical shifts of the ^1H NMR signals (>0.1 ppm for at least one of the signals) was observed upon addition of up to 4-5 equivalents of Cu(MeCN)4BF4 were considered to show weak binding.

[3] = test system: H322 lung carcinoma cells; test: MTS cytotoxicity assay on H322; type: cell-based; settings: NCI-H322; H322, 72 hours of treatment
Protocol: H322 lung carcinoma cells were seeded in 96-well plates together with the calix[4]arene of the formula (2). Cells were grown in RPMI-1640 supplemented with GlutaMAX™ (Gibco™) and fetal calf serum (FCS, 10%) and treated with a broad range of concentrations of the calix[4]arene of the formula (2). After 72 hours of treatment, the cytotoxicity was measured by means of the IC50 value, using the kit “CellTiter 96R AQuous One Solution Cell Proliferation Assay (MTS)” from Promega™. Following 30 minutes of incubation with the MTS reagent, the endpoint measurements were done in triplicate at 485 nm, using a fluorescence plate reader.
H322 lung carcinoma cells were seeded in 96-well plates together with the compound of the 2nd comparative example of the formula (XI). Cells were grown in RPMI-1640 supplemented with GlutaMAX™ (Gibco™) and fetal calf serum (FCS, 10%) and treated with a broad range of concentrations of the 2nd comparative example of the formula (XI). After 72 hours of treatment, the cytotoxicity was measured by means of the IC50 value, using the kit “CellTiter 96R AQuous One Solution Cell Proliferation Assay (MTS)” from Promega™. Following 30 minutes of incubation with the MTS reagent, the endpoint measurements were done in triplicate at 485 nm, using a fluorescence plate reader.
H322 lung carcinoma cells were seeded in 96-well plates together with the 1st comparative example of the formula (X). Cells were grown in RPMI-1640 supplemented with GlutaMAX™ (Gibco™) and fetal calf serum (FCS, 10%) and treated with a broad range of concentrations of the compound of the formula (X). After 72 hours of treatment, the cytotoxicity was measured by means of the IC50 value, using the kit “CellTiter 96R AQuous One Solution Cell Proliferation Assay (MTS)” from Promega™. Following 30 minutes of incubation with the MTS reagent, the endpoint measurements were done in triplicate at 485 nm, using a fluorescence plate reader.
H322 lung carcinoma cells were seeded in 96-well plates together with the tested calix[4]arenes. Cells were grown in RPMI-1640 supplemented with GlutaMAX™ (Gibco™) and fetal calf serum (FCS, 10%) and treated with a broad range of concentrations of the tested calix[4]arenes. After 72 hours of treatment, the cytotoxicity was measured by means of the IC50 value, using the kit “CellTiter 96R AQuous One Solution Cell Proliferation Assay (MTS)” from Promega™. Following 30 minutes of incubation with the MTS reagent, the endpoint measurements were done in triplicate at 485 nm, using a fluorescence plate reader.

[4] = test system: Hepatocellular carcinoma (HepG2/C3A) cells; test: MTT cytotoxicity assay (DL50); type: cell-based; settings: 24 hours of incubation
Protocol: Cytotoxicity was evaluated using the MTT assay. 1.10^4 cells per well were seeded in a flat-bottom 96-well plate and were incubated for 48 hours at 37° C. with 5% CO2 before addition of the different calix[4]arenes at concentrations up to 200 μM. In all experiments, each condition was performed in triplicate in the plate. Besides, each experiment was done three times independently. After 24 hours of incubation in presence of the compounds, medium was discarded, cells were rinsed with PBS and 100 μL of medium containing 0.5 mg/mL of MTT was added to each well. After 30 minutes of incubation at 37° C., MTT solution was discarded and formazan crystals formed were dissolved in 150 μL of 4 mM HCl, 0.1% NP40 in isopropanol. The absorbance in the wells were read in a microplate reader (Tecan microplate reader-550) at 570 nm.

[5] = test system: A549 human lung cancer cells; test: MTS cytotoxicity assay, combination with CuCl2, A549; settings: 72 hours
Protocol: A549 human lung cancer cells were seeded in 96-well plates together with the calix[4]arene of the formula (2) and CuCl2. Cells were grown in RPMI-1640 supplemented with GlutaMAX™ (Gibco™) and fetal calf serum (FCS, 10%) treated with a broad range of concentrations of the calix[4]arene of the formula (2) or/and CuCl2 from Merck. After 72 hours of treatment, the cytotoxicity was measured by means of the IC50 value, using the kit “CellTiter 96R AQuous One Solution Cell Proliferation Assay (MTS)” from Promega™. Following 30 minutes of incubation with the MTS reagent, the endpoint measurements were done in triplicate at 485 nm, using a fluorescence plate reader.

[6] = test system: PC9 human lung cancer cells; test: MTS cytotoxicity assay, combination with CuCl2, PC9; settings: 72 hours
Protocol: PC9 human lung cancer cells were seeded in 96-well plates together with the calix[4]arene of the formula (2) and CuCl2. Cells were grown in RPMI-1640 supplemented with GlutaMAX™ (Gibco™) and fetal calf serum (FCS, 10%) treated with a broad range of concentrations of the calix[4]arene of the formula (2) or/and CuCl2 from Merck. After 72 hours of treatment, the cytotoxicity was measured by means of the IC50 value, using the kit “CellTiter 96R AQuous One Solution Cell Proliferation Assay (MTS)” from Promega™. Following 30 minutes of incubation with the MTS reagent, the endpoint measurements were done in triplicate at 485 nm, using a fluorescence plate reader.

[7] = test system: H322 lung carcinoma cells; test: MTS cytotoxicity assay, combination with CuCl2, H322; settings: 72 hours
Protocol: H322 lung carcinoma cells were seeded in 96-well plates together with the calix[4]arene of the formula (2) and CuCl2. Cells were grown in RPMI-1640 supplemented with GlutaMAX™ (Gibco™) and fetal calf serum (FCS, 10%) treated with a broad range of concentrations of the calix[4]arene of the formula (2) or/and CuCl2 from Merck. After 72 hours of treatment, the cytotoxicity was measured by means of the IC50 value, using the kit “CellTiter 96R AQuous One Solution Cell Proliferation Assay (MTS)” from Promega™ Following 30 minutes of incubation with the MTS reagent, the endpoint measurements were done in triplicate at 485 nm, using a fluorescence plate reader.

Structure (SMILES)	Cu^+ transport [1]	Cu^+ binding [2]	IC50 [3] [µM]	IC50 [4] [µM]	also measured
C=CCOc1c2cccc1Cc1cccc(c1OCc1nccn1C)Cc1cccc(c1OCC=C)Cc1cccc(c1OCc1nccn1C)C2 [(3)]	Yes (means that a significant decrease of the fluorescence of encapsulated BCS was observed upon addition of Cu^+ to the liposomes (F/F0<0.65 after 600 s))	Strong binding (means an affinity constant (Ka) equal or greater than 10^5 M^−1)	5	4.5	–
CCOC(=O)COc1c2cccc1Cc1cccc(c1OCc1nccn1C)Cc1cccc(c1OCC(=O)OCC)Cc1cccc(c1OCc1nccn1C)C2 [(4)]	Yes (means that a significant decrease of the fluorescence of encapsulated BCS was observed upon addition of Cu^+ to the liposomes (F/F0<0.65 after 600 s))	Strong binding (means an affinity constant (Ka) equal or greater than 10^5 M^−1)	6	3.1	–
COc1c2cccc1Cc1cccc(c1OCc1nccn1C)Cc1cccc(c1OC)Cc1cccc(c1OCc1nccn1C)C2 [(5)]	Yes (means that a significant decrease of the fluorescence of encapsulated BCS was observed upon addition of Cu^+ to the liposomes (F/F0<0.65 after 600 s))	Strong binding (means an affinity constant (Ka) equal or greater than 10^5 M^−1)	> 10	23	–
Cn1ccnc1COc1c2cccc1Cc1cccc(c1O)Cc1cccc(c1OCc1nccn1C)Cc1cccc(c1O)C2 [(6)]	Yes (means that a significant decrease of the fluorescence of encapsulated BCS was observed upon addition of Cu^+ to the liposomes (F/F0<0.65 after 600 s))	Strong binding (means an affinity constant (Ka) equal or greater than 10^5 M^−1)	> 10	20.7	–
CCCOc1c2cc([N+](=O)[O-])cc1Cc1cccc(c1OCc1nccn1C)Cc1cc([N+](=O)[O-])cc(c1OCCC)Cc1cccc(c1OCc1nccn1C)C2 [(7)]	Yes (means that a significant decrease of the fluorescence of encapsulated BCS was observed upon addition of Cu^+ to the liposomes (F/F0<0.65 after 600 s))	Strong binding (means an affinity constant (Ka) equal or greater than 10^5 M^−1)	5	10.9	–
CCCOc1c2cccc1Cc1cccc(c1OCc1nc3ccccc3n1C)Cc1cccc(c1OCCC)Cc1cccc(c1OCc1nc3ccccc3n1C)C2 [(8)]	Yes (means that a significant decrease of the fluorescence of encapsulated BCS was observed upon addition of Cu^+ to the liposomes (F/F0<0.65 after 600 s))	Strong binding (means an affinity constant (Ka) equal or greater than 10^5 M^−1)	–	128	–
CCCOc1c2cccc1Cc1cccc(c1OCc1ncco1)Cc1cccc(c1OCCC)Cc1cccc(c1OCc1ncco1)C2 [(9)]	Yes (means that a significant decrease of the fluorescence of encapsulated BCS was observed upon addition of Cu^+ to the liposomes (F/F0<0.65 after 600 s))	Weak binding (means a change of the chemical shifts of the ^1H NMR signals (>0.1 ppm for at least one of the signals) is observed upon addition of up to 4-5 equivalents of Cu(MeCN)4BF4)	–	70	–
CCCOc1c2cccc1Cc1cccc(c1OCc1nccs1)Cc1cccc(c1OCCC)Cc1cccc(c1OCc1nccs1)C2 [(10)]	Yes (means that a significant decrease of the fluorescence of encapsulated BCS was observed upon addition of Cu^+ to the liposomes (F/F0<0.65 after 600 s))	Weak binding (means a change of the chemical shifts of the ^1H NMR signals (>0.1 ppm for at least one of the signals) is observed upon addition of up to 4-5 equivalents of Cu(MeCN)4BF4)	–	–	–
CCCOc1c2cccc1Cc1cccc(c1OCc1ccccn1)Cc1cccc(c1OCCC)Cc1cccc(c1OCc1ccccn1)C2 [(38)]	Yes (means that a significant decrease of the fluorescence of encapsulated BCS was observed upon addition of Cu^+ to the liposomes (F/F0<0.65 after 600 s))	Strong binding (means an affinity constant (Ka) equal or greater than 10^5 M^−1)	–	–	–
Oc1c(I)cc(Cl)c2cccnc12 [Clioquinol, clioquinol, reference compound]	–	–	–	67	–
[Cl][Cu][Cl] [Cu^2+, CuCl2]	–	–	–	–	percentage of cell viability ([5]; A549, Cu^2+ 1 μM alone ((2) 0 μM)): 89.4%; percentage of cell viability ([5]; A549, Cu^2+ 5 μM alone ((2) 0 μM)): 88.1%; percentage of cell viability ([5]; A549, Cu^2+ 10 μM alone ((2) 0 μM)): 84.6%; percentage of cell viability ([5]; A549, Cu^2+ 25 μM alone ((2) 0 μM)): 85.6%; percentage of cell viability ([5]; A549, Cu^2+ 50 μM alone ((2) 0 μM)): 79.4%; percentage of cell viability ([6]; PC9, Cu^2+ 1 μM alone ((2) 0 μM)): 90.9%; percentage of cell viability ([6]; PC9, Cu^2+ 5 μM alone ((2) 0 μM)): 87.1%; percentage of cell viability ([6]; PC9, Cu^2+ 10 μM alone ((2) 0 μM)): 81.0%; percentage of cell viability ([6]; PC9, Cu^2+ 25 μM alone ((2) 0 μM)): 77.1%; percentage of cell viability ([6]; PC9, Cu^2+ 50 μM alone ((2) 0 μM)): 68.8%; percentage of cell viability ([7]; H322, Cu^2+ 1 μM alone ((2) 0 μM)): 87.2%; percentage of cell viability ([7]; H322, Cu^2+ 5 μM alone ((2) 0 μM)): 83.3%; percentage of cell viability ([7]; H322, Cu^2+ 10 μM alone ((2) 0 μM)): 79.5%; percentage of cell viability ([7]; H322, Cu^2+ 25 μM alone ((2) 0 μM)): 72.9%; percentage of cell viability ([7]; H322, Cu^2+ 50 μM alone ((2) 0 μM)): 60.6%
CCCOc1c2cccc1Cc1cccc(c1OCc1nccn1C)Cc1cccc(c1OCCC)Cc1cccc(c1OCc1nccn1C)C2 [formula (2)]	–	–	–	3.1	–
